According to the supplement of paper PMC10307832:

Tests used:
Test in all cases: relative viability (nuclei count vs DMSO), 5 days (fraction); higher = more cells survive
[1] = compound: C1/C(=C\C2=CC=CS2)/C(=O)/C(=C/C3=CC=CS3)/C1 + CCNC(=O)c1noc(-c2cc(C(C)C)c(O)cc2O)c1-c1ccc(CN2CCOCC2)cc1 [Luminespib] (partner 0.01 µM)
Summary of the method: (§1)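 Relative viability divides the nuclei count in treated wells by that in vehicle wells. Lung cancer cell lines were seeded in 1536-well plates, dosed by pin tool the next day, and fixed and stained after 5 days in one step with final 0.05% Triton X-100, 1% formaldehyde and 1 ug/ml Hoechst. Dosing was a single drug or a fixed anchor-drug dose plus five library-drug doses (not always all listed) in √10 steps, and values are medians of duplicate plates imaged at 4×.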

[2] = compound: C1/C(=C\C2=CC=CS2)/C(=O)/C(=C/C3=CC=CS3)/C1 + CS(=O)(=O)CCNCc1ccc(-c2ccc3ncnc(Nc4ccc(OCc5cccc(F)c5)c(Cl)c4)c3c2)o1 [Lapatinib] (partner 2 µM)
Summary of the method: as §1

TPCA-1 + Navitoclax = compound: C1=CC(=CC=C1C2=CC(=C(S2)NC(=O)N)C(=O)N)F [TPCA-1] + CC1(C)CCC(c2ccc(Cl)cc2)=C(CN2CCN(c3ccc(C(=O)NS(=O)(=O)c4ccc(N[C@H](CCN5CCOCC5)CSc5ccccc5)c(S(=O)(=O)C(F)(F)F)c4)cc3)CC2)C1 [Navitoclax] (partner 0.5 µM)
Summary of the method: as §1

Lestaurtinib + OSI-027 = compound: C[C@]12O[C@H](C[C@]1(O)CO)n1c3ccccc3c3c4c(c5c6ccccc6n2c5c31)CNC4=O [Lestaurtinib] + COc1cccc2cc(-c3nc([C@H]4CC[C@H](C(=O)O)CC4)n4ncnc(N)c34)[nH]c12 [OSI-027] (partner 0.5 µM)
Summary of the method: as §1

Row | Cell Line | relative viability ([1]; first compound 0.2 µM) | relative viability ([1]; first compound 0.6325 µM) | relative viability ([1]; first compound 2 µM) | relative viability ([1]; first compound 6.325 µM) | relative viability ([1]; first compound 20 µM) | relative viability ([2]; first compound 0.2 µM) | relative viability ([2]; first compound 0.6325 µM) | relative viability ([2]; first compound 2 µM) | relative viability ([2]; first compound 6.325 µM) | relative viability ([2]; first compound 20 µM) | relative viability (TPCA-1 + Navitoclax; first compound 0.04 µM) | relative viability (TPCA-1 + Navitoclax; first compound 0.1265 µM) | relative viability (TPCA-1 + Navitoclax; first compound 0.4 µM) | relative viability (TPCA-1 + Navitoclax; first compound 1.265 µM) | relative viability (TPCA-1 + Navitoclax; first compound 4 µM) | relative viability (Lestaurtinib + OSI-027; first compound 0.005 µM) | relative viability (Lestaurtinib + OSI-027; first compound 0.01581 µM) | relative viability (Lestaurtinib + OSI-027; first compound 0.05 µM) | relative viability (Lestaurtinib + OSI-027; first compound 0.1581 µM) | relative viability (Lestaurtinib + OSI-027; first compound 0.5 µM)
1 | NCI-H2126 | 0.952 | 0.84 | 0.963 | 0.804 | 0.867 | 0.774 | 0.751 | 0.787 | 0.691 | 0.745 | 0.866 | 0.791 | 0.899 | 0.812 | 0.767 | 0.6 | 0.844 | 0.665 | 0.658 | 0.539
2 | H3255 | 1.21 | 0.855 | 0.954 | 0.871 | 0.907 | 0.235 | 0.296 | 0.127 | 0.227 | 0.237 | 0.536 | 0.507 | 0.473 | 0.396 | 0.242 | 0.63 | 0.515 | 0.56 | 0.36 | 0.276
3 | HCC-15 | 0.396 | 0.245 | 0.234 | 0.211 | 0.219 | 0.929 | 0.897 | 0.835 | 0.762 | 0.854 | 0.825 | 0.64 | 0.682 | 0.686 | 0.519 | 0.717 | 0.757 | 0.658 | 0.464 | 0.185
4 | NCI-H2009 | 1.05 | 1.05 | 0.941 | 0.741 | 1.03 | 0.882 | 0.872 | 1.02 | 0.868 | 0.917 | 1.2 | 1.18 | 1.08 | 1.19 | 1.12 | 0.578 | 0.449 | 0.365 | 0.441 | 0.24
5 | HCC-44 | 1.09 | 1.19 | 1.08 | 0.942 | 0.965 | 0.979 | 1.02 | 1 | 0.728 | 0.975 | 0.973 | 0.983 | 1.04 | 0.927 | 0.915 | 0.548 | 0.654 | 0.462 | 0.659 | 0.705
6 | COR-L23 | 0.583 | 0.692 | 0.577 | 0.721 | 0.544 | 0.923 | 1.02 | 0.841 | 0.859 | 0.92 | 1.28 | 0.953 | 1.03 | 1.03 | 0.733 | 0.612 | 0.933 | 0.281 | 0.395 | 0.343
7 | EMC-BAC-2 | 1.23 | 1.23 | 1.19 | 1.09 | 1.12 | 0.931 | 0.873 | 0.952 | 0.866 | 0.843 | 1.21 | 1.19 | 1.14 | 1.13 | 1.01 | 0.38 | 0.365 | 0.363 | 0.308 | 0.263
8 | LK-2 | 0.166 | 0.187 | 0.177 | 0.202 | 0.212 | 0.897 | 0.887 | 1.2 | 1.05 | 0.988 | 0.868 | 0.664 | 0.955 | 0.778 | 0.71 | 0.158 | 0.224 | 0.176 | 0.185 | 0.173
9 | SW 1573 | 0.25 | 0.192 | 0.194 | 0.161 | 0.181 | 1.07 | 1.15 | 1.17 | 1.09 | 1.03 | 1.14 | 0.866 | 0.916 | 0.962 | 0.948 | 0.67 | 0.561 | 0.482 | 0.449 | 0.131
10 | NCI-H2405 | 0.818 | 0.773 | 0.743 | 0.673 | 0.675 | 1.12 | 1.07 | 1.33 | 0.887 | 1.14 | 0.971 | 0.691 | 0.964 |  | 0.714 | 0.647 | 0.685 | 0.59 | 0.487 | 0.414
11 | NCI-H2087 | 0.215 | 0.161 | 0.177 | 0.133 | 0.158 | 0.866 | 0.825 | 1.08 | 0.894 | 1.09 | 1.02 | 0.818 | 0.936 | 0.791 | 0.356 | 0.627 | 0.634 | 0.531 | 0.408 | 0.338
12 | NCI-H460 | 0.0304 | 0.0338 | 0.0299 | 0.02 | 0.0356 | 1.07 | 1.2 | 0.929 |  | 0.893 | 1.24 | 1.04 | 1 | 1.1 | 0.709 | 0.498 | 0.859 | 0.359 | 0.229 | 0.204
13 | LOU-NH91 | 0.332 | 0.358 | 0.413 | 0.328 | 0.338 | 0.744 | 0.821 | 0.782 | 0.607 | 0.802 | 0.822 | 0.585 | 0.692 | 0.65 | 0.507 | 0.728 | 0.711 | 0.637 | 0.574 | 0.424
14 | NCI-H1651 | 0.97 | 0.933 | 1.13 | 0.751 | 0.716 | 0.81 | 0.93 | 0.793 |  | 0.769 | 0.97 | 0.913 | 0.947 | 1.16 | 0.995 | 0.745 | 0.799 | 0.566 | 0.753 | 0.493
